Assay [1] concerns T47D cells. Briefly: Cell-based assay: anti-proliferative activity, Cell Counting Kit-8, 72 hours (T47D). The following applies: Homo sapiens, T47D, 72 h. The protocol:
(§1) To evaluate the expression status of MELK in several cell lines, western blot analysis was performed using crude cell lysate collected from those cells. Anti-MELK antibody (clone 31, BD Biosciences) was used to visualize the expression.
(§2) Active candidate inhibitors against MELK were evaluated for their target-specific cytotoxicity using T47D, A549, BT-549, and HT-1197 cells was used for negative control. 100 micro-L of cell suspension was seeded onto 96-well microtiter plate (ViewPlate-96FTC, PerkinElmer). The initial cell concentration of T47D, A549, BT-549, and HT-1197 were 3,000 cells/well, 2,000 cells/well and 2,500 cells/well, respectively. Cellular growth was determined using Cell Counting Kit-8 (DOJINDO) at 72 hours after the exposure of the candidate inhibitors. […] Accurate IC50 values were calculated as described previously.
For orientation: Tetrazolium assays rely on reduction of a dye to a coloured formazan, in cell work by metabolically active cells.

Assay [2] deals with HT-1197 cells. As to the kind of experiment: Cell-based assay: anti-proliferative activity, Cell Counting Kit-8, 72 hours (HT-1197, negative control without MELK expression). Particulars: Homo sapiens, HT1197, 72 h, 72 hours. As to the method: as §1, §2
Assay [3] addresses MELK (Homo sapiens, UniProt Q14680). Briefly: Kinase assay: MELK activity, phosphorylation of FITC-labeled histone H3 peptide measured by IMAP fluorescence polarization. The class given is biochemical. The following applies: read-out: IC50 (μM) (kinase assay). The protocol: MELK activity was determined in the presence or absence of compounds using fluorescein isothiocyanate-labeled (FITC-labeled) histone H3 peptide as a substrate. […] Test compounds were dissolved in DMSO at 12.5 mM and then serially diluted as the DMSO concentration in the assays to be 1%. […] The reaction was stopped by the addition of three fold assay volume of progressive binding solution. Following 0.5 hour incubation at room temperature, fluorescence polarization was measured by Wallac EnVision 2103 multilabel reader (PerkinElmer).
For orientation: In fluorescence polarisation assays a small probe gives low polarisation when free and higher when bound to something large.

[4] abbreviates: HT1197 cells (negative control, no MELK expression).
The mark [5] stands for this setting: 50 micro-M ATP, FITC-labeled histone H3 peptide substrate, IMAP fluorescence polarization.
Where [6] appears, read: HT1197 cells (negative control).
The mark [7] stands for this setting: MELK kinase assay, IMAP fluorescence polarization, 50 micro-M ATP.

Where a name gives a salt, the structure may show the parent alone. Read-outs that look alike come from different tables or passages of the source.

Chain of MELK (Q14680 whole entry, looked up): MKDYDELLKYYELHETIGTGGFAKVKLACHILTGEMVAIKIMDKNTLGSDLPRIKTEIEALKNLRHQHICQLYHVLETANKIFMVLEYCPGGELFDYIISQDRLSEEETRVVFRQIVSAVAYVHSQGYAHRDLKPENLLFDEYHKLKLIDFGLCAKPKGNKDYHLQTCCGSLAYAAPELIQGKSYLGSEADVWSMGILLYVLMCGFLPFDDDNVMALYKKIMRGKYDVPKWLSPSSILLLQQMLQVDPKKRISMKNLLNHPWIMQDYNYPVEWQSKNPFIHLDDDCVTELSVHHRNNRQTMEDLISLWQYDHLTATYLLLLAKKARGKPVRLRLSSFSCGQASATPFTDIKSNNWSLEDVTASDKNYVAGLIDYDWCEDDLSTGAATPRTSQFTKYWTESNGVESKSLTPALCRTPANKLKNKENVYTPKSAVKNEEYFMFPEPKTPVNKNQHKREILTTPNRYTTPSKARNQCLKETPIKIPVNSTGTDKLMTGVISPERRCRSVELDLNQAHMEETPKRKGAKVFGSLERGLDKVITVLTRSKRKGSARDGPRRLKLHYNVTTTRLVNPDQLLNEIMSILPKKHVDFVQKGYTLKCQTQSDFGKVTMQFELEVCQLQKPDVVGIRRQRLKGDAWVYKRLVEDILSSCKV

Turning to `CN(C)CC1CCN(c2c(C(=O)C3CC3)cnc3ccc(-c4ccc5c(c4)CC(=O)N5)cc23)CC1` [Example 474], the IC50 in assay [1] and in assay [2] (setting [4]) was 10 µM in each case.

With `COc1cc(-c2ccc3ncc(C(=O)C4CC4)c(NCC(=O)N4CCN(C)CC4)c3c2)cc(Cl)c1O` [Example 395, 2-(6-(3-chloro-4-hydroxy-5-methoxyphenyl)-3-(cyclopropanecarbonyl)quinolin-4-ylamino)-1-(4-methylpiperazin-1-yl)ethanone], the IC50 – broadly, the concentration that gives 50% inhibition – in assay [1] turned out to be 10 µM; in assay [2] (setting [4]) it was 10 µM; in assay [3] (setting [5]), 1 µM.

As to `CN(C)Cc1ccc(Nc2c(C(=O)C3CC3)cnc3c(F)cc(-c4cc(F)c(O)c(Cl)c4)cc23)cc1` [Example 563, (6-(3-chloro-5-fluoro-4-hydroxyphenyl)-4-(4-((dimethylamino)methyl)phenylamino)-8-fluoroquinolin-3-yl)(cyclopropyl)methanone], the IC50 in assay [1] was found to be 1.3 µM; in assay [2] (setting [6]), 3.3 µM; in assay [3] it was 1.8 µM.

With `N[C@H]1CC[C@H](Nc2c(C(=O)C3CC3)cnc3c(F)cc(-c4cc(F)c(O)c(Cl)c4)cc23)CC1` [Example 555], the IC50 in assay [1] turned out to be 0.44 µM; in assay [2] (setting [6]), 10 µM; in assay [3], 5.1 µM.

On to `COC(=O)c1ccc(-c2ccc3ncc(C(=O)C4CC4)c(N4CCC(CN(C)C)CC4)c3c2)cc1` [Example 481, methyl 4-(3-(cyclopropanecarbonyl)-4-(4-((dimethylamino)methyl)piperidin-1-yl)quinolin-6-yl)benzoate], for which the half-maximal inhibitory concentration (IC50) in assay [1] worked out at 10 µM; in assay [2] (setting [4]), 10 µM; in assay [3], 1.4 µM.

For the compound `COc1cc(-c2ccc3ncc(C(=O)C4CC4)c(-c4cn[nH]c4)c3c2)cc(Cl)c1O` [Example 536, (6-(3-chloro-4-hydroxy-5-methoxyphenyl)-4-(1H-pyrazol-4-yl)quinolin-3-yl)(cyclopropyl)methanone], the IC50 in assay [1] came out at 1.3 µM; in assay [2] (setting [6]) it was 14 µM; in assay [3] it was 0.11 µM.

On to `COc1cc(-c2ccc3ncc(C(=O)C4CC4)c(NC4CCC(N5CCC(F)(F)C5)CC4)c3c2)cc(Cl)c1O` (stereo not shown) [Example 676, (6-(3-chloro-4-hydroxy-5-methoxyphenyl)-4-(4-(3,3-difluoropyrrolidin-1-yl)cyclohexylamino)quinolin-3-yl)(cyclopropyl)methanone], for which the half-maximal inhibitory concentration (IC50) in assay [1] stood at 1 µM; in assay [2] (setting [4]) it was 11 µM; in assay [3], 0.29 µM.

For `CN(C)CC1CCN(c2c(C(=O)C3CC3)cnc3ccc(-c4ccc(OC(F)F)cc4)cc23)CC1` [Example 458], the results for the IC50 in assay [1] and in assay [2] (setting [4]) were 7.2 µM and 8.4 µM, respectively.

Turning to `CN(C)Cc1ccc(Nc2c(C(=O)C3CC3)cnc3c(F)cc(-c4cc(Cl)c(O)c(Cl)c4)cc23)cc1` [Example 552, cyclopropyl(6-(3,5-dichloro-4-hydroxyphenyl)-4-(4-((dimethylamino)methyl)phenylamino)-8-fluoroquinolin-3-yl)methanone], the IC50 in assay [1] stood at 1.1 µM; in assay [2] (setting [6]), 9 µM; in assay [3], 0.58 µM.

In the case of `O=C(c1cnc2ccc(-c3cc(F)c(O)c(Cl)c3)cc2c1NC1CCC(N2CCC(F)(F)C2)CC1)C1CC1` (stereo not shown) [Example 675, (6-(3-chloro-5-fluoro-4-hydroxyphenyl)-4-(4-(3,3-difluoropyrrolidin-1-yl)cyclohexylamino)quinolin-3-yl)(cyclopropyl)methanone], the IC50 in assay [1] is 0.8 µM; in assay [2] (setting [4]), 4.4 µM; in assay [3], 0.83 µM.

Regarding `COc1cc(-c2cc(F)c3ncc(C(=O)C4CC4)c(Nc4ccc(CN(C)C)cc4)c3c2)cc(Cl)c1O` [Example 551, (6-(3-chloro-4-hydroxy-5-methoxyphenyl)-4-(4-((dimethylamino)methyl)phenylamino)-8-fluoroquinolin-3-yl)(cyclopropyl)methanone], the figures for the IC50 in assay [1], in assay [2] (setting [6]) and in assay [3] were 2 µM, 6.9 µM and 1.1 µM, respectively.

In the case of `N[C@H]1CC[C@H](Nc2c(C(=O)C3CC3)cnc3c(F)cc(-c4cc(Cl)c(O)c(Cl)c4)cc23)CC1` [Example 565], the values for the IC50 in assay [1], in assay [2] (setting [6]) and in assay [3] were 0.3 µM, 10 µM and 2.1 µM, respectively.

`CN[C@H]1CC[C@H](Nc2c(C(C)=O)cnc3ccc(-c4cc(F)c(O)c(Cl)c4)cc23)CC1` [Example 560]: the IC50 in assay [1] is 0.041 µM; in assay [2] (setting [6]), 10 µM; in assay [3], 0.11 µM.

With `COc1cc(-c2cc(F)c3ncc(C(=O)C4CC4)c(N[C@H]4CC[C@H](N)CC4)c3c2)cc(Cl)c1O` [Example 564], the values for the concentration for half-maximal inhibition (IC50) in assay [1], in assay [2] (setting [6]) and in assay [3] were 0.43 µM, 1.8 µM and 0.26 µM, respectively.

On to `O=C(c1cnc2ccc(-c3cc(Cl)c(O)c(Cl)c3)cc2c1NC1CCC(N2CCC(F)(F)C2)CC1)C1CC1` (stereo not shown) [Example 664, cyclopropyl(6-(3,5-dichloro-4-hydroxyphenyl)-4-(4-(3,3-difluoropyrrolidin-1-yl)cyclohexylamino)quinolin-3-yl)methanone], for which the figures for the IC50 in assay [1], in assay [2] (setting [4]) and in assay [3] were 1.7 µM, 10 µM and 0.14 µM, respectively.

Consider `CN(C)CC1CCN(c2c(C(=O)C3CC3)cnc3ccc(-c4ccc(C(F)F)cc4)cc23)CC1` [Example 465], for which the IC50 in assay [1] came out at 8.6 µM; in assay [2] (setting [4]), 5.6 µM; in assay [3] (setting [5]) it was 0.91 µM.

As to `CC(=O)c1c(C)nc2ccc(-c3cc(F)c(O)c(Cl)c3)cc2c1Nc1ccc(N2CCN(C)CC2)nc1` [Example 837, 1-(6-(3-chloro-5-fluoro-4-hydroxy-phenyl)-2-methyl-4-(6-(4-methyl-piperazin-1-yl)pyridin-3-ylamino)quinolin-3-yl)ethanone hydrochloride], in assay [3] (setting [7]), the IC50 amounted to 0.54 µM.

For the compound `CC(=O)c1cnc2ccc(-c3cc(F)c(O)c(Cl)c3)cc2c1N[C@H]1CC[C@H](CN(C)C)CC1` [Example 943, 1-(6-(3-chloro-5-fluoro-4-hydroxyphenyl)-4-((trans-4-((dimethylamino)methyl)cyclohexyl)amino)quinolin-3-yl)ethanone dihydrochloride], the IC50 in assay [3] (MELK kinase assay, IMAP fluorescence polarization, 50 micro-M ATP, dihydrochloride) came out at 0.004 µM.

For `CC(=O)c1cnc2ccc(-c3cc(Cl)c(O)c(Cl)c3)cc2c1Nc1ccc(CN(C)C)cc1` [Example 942, 1-(6-(3,5-dichloro-4-hydroxyphenyl)-4-(4-((dimethylamino)methyl)phenylamino)quinolin-3-yl)ethanone], the IC50 in assay [3] (setting [7]) turned out to be 0.0022 µM.

On to `CN(C)C[C@H]1CC[C@H](Nc2c(C(=O)C3CC3)cnc3ccc(-c4cc(Cl)c(O)c(Cl)c4)cc23)CC1` [Example 324, cyclopropyl(6-(3,5-dichloro-4-hydroxyphenyl)-4-(trans-4-((dimethylamino)methyl)cyclohexylamino)quinolin-3-yl)methanone], for which the IC50 in assay [3] (setting [7]) was 0.00085 µM.

On to `CC(=O)c1cnc2cc(C)c(-c3cc(Cl)c(O)c(Cl)c3)cc2c1Nc1ccc(CN(C)C)cc1` [Example 847, 1-(6-(3,5-dichloro-4-hydroxyphenyl)-4-(4-((dimethylamino)methyl)phenyl-amino)-7-methylquinolin-3-yl) ethanone hydrochloride], for which, in assay [3] (setting [7]), the IC50 was determined as 0.55 µM.

In the case of `CC(=O)c1cnc2ccc(-c3ccc(-c4ccc(O)cc4)cc3)cc2c1Nc1cccc(CCN2CCCC2)c1` [Example 888, 1-(6-(4′-hydroxy-[1,1′-biphenyl]-4-yl)-4-((3-(2-(pyrrolidin-1-yl)ethyl)phenyl)amino)quinolin-3-yl) ethanone hydrochloride], the IC50 in assay [3] (setting [7]) is 3.4 µM.

Take `CC(=O)c1cnc2ccc(-c3cc(Cl)c(O)c(Cl)c3)cc2c1Nc1ccc(CN(C)C)cc1` [Example 374]: the concentration for half-maximal inhibition (IC50) in assay [3] (setting [7]) amounted to 0.0066 µM.

Turning to `CCCC(=O)c1cnc2ccc(-c3cc(Cl)c(O)c(Cl)c3)cc2c1Nc1ccc(N2CCNCC2)nc1` [Example 625, 1-(6-(3,5-dichloro-4-hydroxyphenyl)-4-(6-(piperazin-1-yl)pyridin-3-ylamino)quinolin-3-yl)butan-1-one], the IC50 in assay [1] was found to be 1.5 µM; in assay [2] (setting [6]), 10 µM; in assay [3], 0.15 µM.

For the compound `CC(=O)c1cnc2ccc(-c3cc(Cl)c(O)c(Cl)c3)cc2c1N[C@H]1CC[C@H](CN(C)C)CC1` [Example 944, 1-{6-(3,5-Dichloro-4-hydroxyphenyl)-4-[trans-4-((dimethylamino)methyl)cyclohexylamino]quinolin-3-yl}ethanone hydrochloride], the IC50 in assay [3] (MELK kinase assay, IMAP fluorescence polarization, 50 micro-M ATP, hydrochloride) was found to be 0.00094 µM.

Regarding `CC(C)C(=O)c1cnc2ccc(-c3cc(F)c(O)c(F)c3)cc2c1N[C@H]1CC[C@H](N)CC1` [Example 938, 1-(4-((1R,4R)-4-aminocyclohexylamino)-6-(3,5-difluoro-4-hydroxyphenyl)quinolin-3-yl)-2-methylpropan-1-one, hydrochloride], in assay [3] (setting [7]), the concentration for half-maximal inhibition (IC50) amounted to 0.017 µM.

Source of the values: patent US9120749B2, “Quinoline derivatives and MELK inhibitors containing the same” (ONCOTHERAPY SCIENCE, INC., priority 2010, dated 2015).
